# Patent publication US11439586B2, “Intratumour injection formulation” (US Nano Food & Drug INC, priority 2018, dated 2022)
# Read-outs that look alike come from different tables or passages of the source.
# Columns and labels:
# [1] = Kinematic viscosity measurement of solvents; type: physicochemical; conditions: 25 ° C.
# [2] = physchem; conditions: dehydrated ethanol, 25 °C, organic solvent or mixture
# [3] = Solubility of antineoplastic drugs in biocompatible pharmaceutical solvents
# [4] = cited from earlier work
# [5] = test system: subcutaneous transplantation of tumors; conditions: for Survival of group after drug administration (mice alive): 11 mice at day 0;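 for all read-outs here: nude mice carrying subcutaneous right axillary tumor cell grafts, tumor volume computed as ab^2/2, negative control given blank solvent intratumorally, animals checked daily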
# Method: After three generations of resuscitation, cells in logarithmic growth phase were digested and suspended in complete medium. The number of cells was calculated, with the number of cells expected to be over 3×10^7/ml. The right axillary part of nude mice was disinfected by alcohol. The cell suspension was injected subcutaneously with a dose of 0.15 ml. After injection, a round translucent liquid bubble bulged up. The state of the nude mice and the growth of tumors were observed every day after injection. […] The successful nude mice were randomly divided into four groups: 11 in the positive control group, 11 in the high dose group, 11 in the low dose group and 12 in the negative control group. After grouping, intravenous injection was administered in the positive control group, with the other groups administered different tested product or blank solvent by intratumoral injection.
# The longest diameter a (mm) and the shortest diameter b (mm) of tumors were measured by electronic Vernier caliper. The tumor volume of nude mice was calculated by formula: TV=ab^2/2, and the relative tumor volume (RTV) was acquired as RTV=V t/Vo. Vo was the volume of tumors before injection and V t was used to measure the volume of tumors some days after first injection. […] The mice were killed 21 days after injection for ethical reasons.
# [6] = Medium Chain Triglycerides, 25 °C, oil or lipid
# [7] = N-N dimethylacetylamide, 25 °C, organic solvent or mixture
# [8] = PEG-400, 25 °C, organic solvent or mixture
# [9] = PEG-400, 110 °C, organic solvent or mixture
# [10] = Tween-80, 25 °C, organic solvent or mixture
# [11] = glycerin, 25 °C, organic solvent or mixture
# [12] = soybean oil, 25 °C, oil or lipid
# [13] = PEG-300, 25 °C, organic solvent or mixture
compound,measurement,setting,value
CCO [Dehydrated ethanol],Kinematic viscosity measurement,[1],1.41 mm^2/s
CC(=O)O[C@@]12CO[C@@H]1C[C@H](O)[C@@]1(C)C(=O)[C@H](O)C3=C(C)[C@@H](OC(=O)[C@H](O)[C@@H](NC(=O)OC(C)(C)C)c4ccccc4)C[C@@](O)([C@@H](OC(=O)c4ccccc4)[C@H]21)C3(C)C [Docetaxel],solubility,[2],118000 to 126000 µg/mL
same,solubility,[3]; [6],< 10000 µg/mL
same,solubility,"[3]; Medium Chain Triglycerides, 105 °C, oil or lipid",30000 to 35000 µg/mL
same,solubility,[3]; [7],> 50000 µg/mL
same,solubility,[3]; [8],< 10000 µg/mL
same,solubility,[3]; [9],> 40000 µg/mL
same,solubility,[3]; [10],< 40000 µg/mL
same,solubility,"[3]; Tween-80, 120 °C, organic solvent or mixture",> 40000 µg/mL
same,solubility,[3]; [11],< 1000 µg/mL
same,solubility,[3]; [12],< 10000 µg/mL
same,solubility,"[3]; soybean oil, 140 °C, oil or lipid",12500 to 15000 µg/mL
OCC(O)CO [Glycerol],Kinematic viscosity measurement,[1],908.8 mm^2/s
CC[C@@]1(O)C(=O)OCc2c1cc1n(c2=O)Cc2cc3cc(O)ccc3nc2-1 [Hydroxycamptothecine],solubility,[2],< 1000 µg/mL
same,solubility,[3]; [6],< 1000 µg/mL
same,solubility,[3]; [7],~71400 µg/mL
same,solubility,[3]; [13],< 10000 µg/mL
same,solubility,"[3]; PEG-300, 90 °C, organic solvent or mixture",> 10000 µg/mL
same,solubility,[3]; [10],< 1000 µg/mL
same,solubility,[3]; [11],< 1000 µg/mL
CC(=O)O[C@H]1C(=O)[C@@]2(C)[C@H]([C@H](OC(=O)c3ccccc3)[C@]3(O)C[C@H](OC(=O)[C@H](O)[C@@H](NC(=O)c4ccccc4)c4ccccc4)C(C)=C1C3(C)C)[C@]1(OC(C)=O)CO[C@@H]1C[C@@H]2O [Paclitaxel],intravenous LD50,[4]; mice,12 mg/kg
same,solubility,[2],> 6000 µg/mL
same,solubility,[3]; [6],< 6000 µg/mL
same,solubility,"[3]; Medium Chain Triglycerides, 120 °C, oil or lipid",> 6000 µg/mL
same,solubility,[3]; [7],> 50000 µg/mL
same,solubility,[3]; [8],< 40000 µg/mL
same,solubility,[3]; [9],> 40000 µg/mL
same,solubility,[3]; [10],< 6000 µg/mL
same,solubility,"[3]; Tween-80, 110 °C, organic solvent or mixture",> 6000 µg/mL
same,solubility,[3]; [11],< 1000 µg/mL
same,solubility,[3]; [12],< 6000 µg/mL
same,solubility,"[3]; soybean oil, 145 °C, oil or lipid",> 6000 µg/mL
COc1cc([C@@H]2c3cc4c(cc3[C@@H](O[C@@H]3O[C@@H]5CO[C@@H](c6cccs6)O[C@H]5[C@H](O)[C@H]3O)[C@H]3COC(=O)[C@H]23)OCO4)cc(OC)c1O [Teniposide],solubility,[2],< 130 µg/mL
same,solubility,[3]; [6],< 200 µg/mL
same,solubility,"[3]; Medium Chain Triglycerides, 200 °C, oil or lipid",< 200 µg/mL
same,solubility,[3]; [7],> 105000 µg/mL
same,solubility,[3]; [13],< 10000 µg/mL
same,solubility,"[3]; PEG-300, 140 °C, organic solvent or mixture",> 50000 µg/mL
same,solubility,[3]; [10],< 1700 µg/mL
same,solubility,[3]; [11],< 1000 µg/mL
COc1cc([C@@H]2c3cc4c(cc3[C@@H](O[C@@H]3O[C@@H]5CO[C@@H](C)O[C@H]5[C@H](O)[C@H]3O)[C@H]3COC(=O)[C@H]23)OCO4)cc(OC)c1O [etoposide],Intravenous LD50 of the mice,[4],Intravenous LD50 of the mice: 15 mg/kg
same,"30% ST, LDG/PCG","[5]; 30% survival time, low dose group (intratumoral) to positive control group (intravenous)",200% (18/9 = 2)
same,Average Tumor Volume V3,"[5]; High dosage (intratumoral, 55 mg/kg), 3 days after first injection",268.5 mm^3
same,Average Tumor Volume V6,"[5]; High dosage (intratumoral, 55 mg/kg), 6 days after first injection",364.2 mm^3
same,"HV6/NV6, tumor volume relative to negative control","[5]; High dosage (intratumoral, 55 mg/kg), 6 days after injection",HV6/NV6 = 90.2%
same,Average Tumor Volume V9,"[5]; High dosage (intratumoral, 55 mg/kg), 9 days after first injection",472.5 mm^3
same,Average Tumor Volume V11,"[5]; High dosage (intratumoral, 55 mg/kg), 11 days after first injection",384.0 mm^3
same,Average Tumor Volume V12,"[5]; High dosage (intratumoral, 55 mg/kg), 12 days after first injection",276.3 mm^3
same,"HV12/NV, tumor volume relative to negative control","[5]; High dosage (intratumoral, 55 mg/kg), 12 days after injection",HV12/NV = 38.0%
same,Average Tumor Volume V0,"[5]; High dosage (intratumoral, 55 mg/kg), before injection",174.4 mm^3
same,Survival of group after drug administration (mice alive),"[5]; High dosage intratumoral, Day 6",11
same,Survival of group after drug administration (mice alive),"[5]; High dosage intratumoral, Day 9",11
same,Survival of group after drug administration (mice alive),"[5]; High dosage intratumoral, Day 11",11
same,Survival of group after drug administration (mice alive),"[5]; High dosage intratumoral, Day 12",2
same,Survival of group after drug administration (mice alive),"[5]; High dosage intratumoral, Day 15",0
same,Survival of group after drug administration (mice alive),"[5]; IV. group, Day 6",11
same,Survival of group after drug administration (mice alive),"[5]; IV. group, Day 9",9
same,Survival of group after drug administration (mice alive),"[5]; IV. group, Day 11",2
same,Survival of group after drug administration (mice alive),"[5]; IV. group, Day 12",0
same,Survival of group after drug administration (mice alive),"[5]; Low dosage intratumoral, Day 6",11
same,Survival of group after drug administration (mice alive),"[5]; Low dosage intratumoral, Day 9",11
same,Survival of group after drug administration (mice alive),"[5]; Low dosage intratumoral, Day 11",11
same,Survival of group after drug administration (mice alive),"[5]; Low dosage intratumoral, Day 12",11
same,Survival of group after drug administration (mice alive),"[5]; Low dosage intratumoral, Day 15",6
same,Survival of group after drug administration (mice alive),"[5]; Low dosage intratumoral, Day 18",4
same,Survival of group after drug administration (mice alive),"[5]; Low dosage intratumoral, Day 19",3
same,Survival of group after drug administration (mice alive),"[5]; Low dosage intratumoral, Day 20",3
same,MST,[5]; intravenous group (positive control),9 days
same,"outcome of local intratumor injection, in words",[5]; low dosage group,superior to the intravenous injection and the negative control group
same,mice surviving,"[5]; low dosage group (11 mice), 20 days after injection",three
same,mice still alive,"[5]; low dosage group (11 mice), 21 days after first injection",three
same,MST,"[5]; low dosage group, intratumoral injection",15 days
same,"MST, HDG/PCG","[5]; median survival time, high dose group (intratumoral) to positive control group (intravenous)",122% (11/9 = 1.22)
same,"LV12/NV (tumor volume, low dose group to negative control group)","[5]; twelve (12) days after injection, intratumoral injection, low dose group",49.3%
